In the experiment the test system is MV-4-11 cells. Put plainly: Gene expression microarray analysis (Affymetrix PrimeView) and GSEA. It is filed as cell-based, human. Set-up: RFU PODN (11730768_x_at) / Fold change /veh PODN (11730768_x_at) / RFU LINC00158 (11744669_a_at) / Fold change /veh LINC00158 (11744669_a_at) / RFU DUSP10 (11751237_a_at) / Fold change /veh DUSP10 (11751237_a_at) / RFU ID3 (11757404_x_at) / Fold change /veh ID3 (11757404_x_at) / RFU PLEKHG5 (11737974_s_at) / Fold change /veh PLEKHG5 (11737974_s_at) / RFU LRRC4B (11730491_at) / Fold change /veh LRRC4B (11730491_at) / RFU GIMAP4 (11747438_a_at) / Fold change /veh GIMAP4 (11747438_a_at) / RFU KRT8 (11758183_x_at) / Fold change /veh KRT8 (11758183_x_at) / RFU CNN1 (11734310_a_at) / Fold change /veh CNN1 (11734310_a_at) / RFU VPS37D (11726825_at) / Fold change /veh VPS37D (11726825_at) / RFU C10orf10 (11716522_x_at) / Fold change /veh C10orf10 (11716522_x_at) / RFU KIR2DL2 /// KIR2DL4 /// KIR2DL5A /// KIR2DL5B /// KIR2DS1 /// KIR2DS2 /// KIR2DS3 /// KIR2DS4 /// KIR3DL3 /// KIR3DL3 /// KIR3DS1 (11738374_at) / Fold change /veh KIR2DL2 /// KIR2DL4 /// KIR2DL5A /// KIR2DL5B /// KIR2DS1 /// KIR2DS2 /// KIR2DS3 /// KIR2DS4 /// KIR3DL3 /// KIR3DL3 /// KIR3DS1 (11738374_at) / RFU C1QL1 (11718748_at) / Fold change /veh C1QL1 (11718748_at) / RFU TMPRSS4 (11747572_a_at) / Fold change /veh TMPRSS4 (11747572_a_at) / RFU HAMP (11756126_x_at) / Fold change /veh HAMP (11756126_x_at) / RFU RNFT2 (11725882_a_at) / Fold change /veh RNFT2 (11725882_a_at) / RFU NR4A2 (11747474_a_at) / Fold change /veh NR4A2 (11747474_a_at) / RFU ABCC12 (11746883_a_at) / Fold change /veh ABCC12 (11746883_a_at) / RFU TMEM136 (11760407_x_at) / Fold change /veh TMEM136 (11760407_x_at) / RFU CLDN22 /// WWC2 (11732394_at) / Fold change /veh CLDN22 /// WWC2 (11732394_at) / RFU HLA-DPB1 (11760878_x_at) / Fold change /veh HLA-DPB1 (11760878_x_at) / RFU SPINT1 (11716480_a_at) / Fold change /veh SPINT1 (11716480_a_at) / RFU GAP43 (11754022_s_at) / Fold change /veh GAP43 (11754022_s_at) / RFU A4GNT (11735810_at) / Fold change /veh A4GNT (11735810_at) / RFU PRB3 (11715151_x_at) / Fold change /veh PRB3 (11715151_x_at) / RFU TUBB4B (11761932_at) / Fold change /veh TUBB4B (11761932_at) / RFU CAPN14 (11732068_a_at) / Fold change /veh CAPN14 (11732068_a_at) / RFU TMCC2 (11721928_a_at) / Fold change /veh TMCC2 (11721928_a_at) / RFU IRGQ (11745062_a_at) / Fold change /veh IRGQ (11745062_a_at) / RFU FAM174B (11720279_a_at) / Fold change /veh FAM174B (11720279_a_at) / RFU TMPRSS4 (11748680_a_at) / Fold change /veh TMPRSS4 (11748680_a_at) / RFU FAM212B (11763350_a_at) / Fold change /veh FAM212B (11763350_a_at) / RFU PLEKHG5 (11743358_a_at) / Fold change /veh PLEKHG5 (11743358_a_at) / RFU ZSCAN30 (11745921_a_at) / Fold change /veh ZSCAN30 (11745921_a_at) / RFU CMKLR1 (11741424_a_at) / Fold change /veh CMKLR1 (11741424_a_at) / RFU LOC101060620 /// MAPK8IP1 (11723275_at) / Fold change /veh LOC101060620 /// MAPK8IP1 (11723275_at) / RFU SPTSSB (11747773_x_at) / Fold change /veh SPTSSB (11747773_x_at) / RFU PRSS12 (11739890_at) / Fold change /veh PRSS12 (11739890_at) / RFU BIN1 (11741810_x_at) / Fold change /veh BIN1 (11741810_x_at) / RFU WNT11 (11732464_a_at) / Fold change /veh WNT11 (11732464_a_at) / RFU C10orf10 (11716521_a_at) / Fold change /veh C10orf10 (11716521_a_at) / RFU C5orf56 (11738089_at) / Fold change /veh C5orf56 (11738089_at) / RFU CYB561 (11721691_x_at) / Fold change /veh CYB561 (11721691_x_at) / RFU ANKRD19P (11752326_a_at) / Fold change /veh ANKRD19P (11752326_a_at) / RFU OR2T12 /// OR2T33 /// OR2T8 (11738714_s_at) / Fold change /veh OR2T12 /// OR2T33 /// OR2T8 (11738714_s_at) / RFU VCAN (11748164_a_at) / Fold change /veh VCAN (11748164_a_at) / RFU JSRP1 (11732532_at) / Fold change /veh JSRP1 (11732532_at) / RFU KRTAP10-11 (11738290_x_at) / Fold change /veh KRTAP10-11 (11738290_x_at) / RFU MYO3A (11730013_a_at) / Fold change /veh MYO3A (11730013_a_at) / RFU EBF3 (11725865_a_at) / Fold change /veh EBF3 (11725865_a_at) / RFU CAMK2N1 (11719241_x_at) / Fold change /veh CAMK2N1 (11719241_x_at) / RFU C5orf56 (11738088_a_at) / Fold change /veh C5orf56 (11738088_a_at) / RFU OLFML3 (11715873_a_at) / Fold change /veh OLFML3 (11715873_a_at) / RFU LOC100653217 /// NTM (11731650_a_at) / Fold change /veh LOC100653217 /// NTM (11731650_a_at) / RFU MAPK11 (11762145_a_at) / Fold change /veh MAPK11 (11762145_a_at) / RFU FIZ1 (11724087_x_at) / Fold change /veh FIZ1 (11724087_x_at) / RFU OASL (11726364_x_at) / Fold change /veh OASL (11726364_x_at) / RFU SOX15 (11748057_x_at) / Fold change /veh SOX15 (11748057_x_at) / RFU CD79A (11719716_a_at) / Fold change /veh CD79A (11719716_a_at) / RFU HIST1H1D (11736915_at) / Fold change /veh HIST1H1D (11736915_at) / RFU CASKIN2 (11723855_a_at) / Fold change /veh CASKIN2 (11723855_a_at) / RFU LOC730098 (11760151_x_at) / Fold change /veh LOC730098 (11760151_x_at) / RFU OR4N2 (11742367_at) / Fold change /veh OR4N2 (11742367_at) / RFU PRRT2 (11749266_a_at) / Fold change /veh PRRT2 (11749266_a_at) / RFU SNX32 (11753110_a_at) / Fold change /veh SNX32 (11753110_a_at) / RFU CDHR5 (11726645_a_at) / Fold change /veh CDHR5 (11726645_a_at) / RFU RCAN1 (11760418_a_at) / Fold change /veh RCAN1 (11760418_a_at) / RFU FAM167A (11723789_a_at) / Fold change /veh FAM167A (11723789_a_at) / RFU FAM26E (11764081_at) / Fold change /veh FAM26E (11764081_at) / RFU ISYNA1 (11749810_s_at) / Fold change /veh ISYNA1 (11749810_s_at) / RFU ACY1 (11761880_at) / Fold change /veh ACY1 (11761880_at) / RFU 11764098_at / Fold change /veh 11764098_at / RFU SAMD14 (11745864_x_at) / Fold change /veh SAMD14 (11745864_x_at) / RFU NPB (11741838_a_at) / Fold change /veh NPB (11741838_a_at) / RFU TMPRSS6 (11731388_a_at) / Fold change /veh TMPRSS6 (11731388_a_at) / RFU KRTAP10-2 (11738614_at) / Fold change /veh KRTAP10-2 (11738614_at) / RFU ARHGAP8 /// PRR5-ARHGAP8 (11727945_x_at) / Fold change /veh ARHGAP8 /// PRR5-ARHGAP8 (11727945_x_at) / RFU KRTAP5-7 /// NADSYN1 (11734609_at) / Fold change /veh KRTAP5-7 /// NADSYN1 (11734609_at) / RFU RASL12 (11751679_a_at) / Fold change /veh RASL12 (11751679_a_at) / RFU CDKN2B (11736163_a_at) / Fold change /veh CDKN2B (11736163_a_at) / RFU PRF1 (11729649_at) / Fold change /veh PRF1 (11729649_at) / RFU, ZNF638 /// ZNF638-IT1 / Fold change vs veh, ZNF638 /// ZNF638-IT1 / RFU, PANK3 / Fold change vs veh, PANK3 / RFU, SH3YL1 / Fold change vs veh, SH3YL1 / RFU, ZEB2 / Fold change vs veh, ZEB2 / RFU, NRIP1 / Fold change vs veh, NRIP1 / RFU, PTTG1IP / Fold change vs veh, PTTG1IP / RFU, CAPN2 / Fold change vs veh, CAPN2 / RFU, MED14 / Fold change vs veh, MED14 / RFU, SNORA58 / Fold change vs veh, SNORA58 / RFU, C1orf63 / Fold change vs veh, C1orf63 / RFU, LRRFIP1 / Fold change vs veh, LRRFIP1 / RFU, NDUFAF7 / Fold change vs veh, NDUFAF7 / RFU, SLC12A2 / Fold change vs veh, SLC12A2 / RFU, IBTK / Fold change vs veh, IBTK / RFU, ESF1 / Fold change vs veh, ESF1 / Fold change vs veh, TMEM50B / RFU, TAOK1 / Fold change vs veh, TAOK1 / RFU, ACBD3 / Fold change vs veh, ACBD3 / RFU, TMA16 / Fold change vs veh, TMA16 / RFU, RWDD3 / Fold change vs veh, RWDD3 / RFU, BCAT1 / Fold change vs veh, BCAT1 / RFU, EDEM3 / Fold change vs veh, EDEM3 / RFU, TMEM33 / Fold change vs veh, TMEM33 / RFU, WDR75 / Fold change vs veh, WDR75 / RFU, AHCTF1 / Fold change vs veh, AHCTF1 / RFU, TFRC / Fold change vs veh, TFRC / RFU, ZDHHC17 / Fold change vs veh, ZDHHC17 / RFU, NOM1 / Fold change vs veh, NOM1 / RFU, ARL8B / Fold change vs veh, ARL8B / RFU, ZBTB11 / Fold change vs veh, ZBTB11 / RFU, TAMM41 / Fold change vs veh, TAMM41 / RFU, KIAA1704 /// LOC100996395 / Fold change vs veh, KIAA1704 /// LOC100996395 / RFU, ING1 / Fold change vs veh, ING1 / RFU, TRMT61B / Fold change vs veh, TRMT61B / RFU, FUBP3 / Fold change vs veh, FUBP3 / RFU, TP53 / Fold change vs veh, TP53 / RFU, TNKS2 / Fold change vs veh, TNKS2 / RFU, ZFP14 / Fold change vs veh, ZFP14 / RFU, ACTR2 / Fold change vs veh, ACTR2 / RFU, PPP3R1 / Fold change vs veh, PPP3R1 / RFU, PIK3R1 / Fold change vs veh, PIK3R1 / RFU, HNRNPA1 / Fold change vs veh, HNRNPA1 / RFU, RNF170 / Fold change vs veh, RNF170 / RFU, ZNF28 / Fold change vs veh, ZNF28 / RFU, RNGTT / Fold change vs veh, RNGTT / RFU, OGT / Fold change vs veh, OGT / RFU, BRD1 / Fold change vs veh, BRD1 / RFU, MARS / Fold change vs veh, MARS / RFU, ZNF655 / Fold change vs veh, ZNF655 / RFU, FAHD1 / Fold change vs veh, FAHD1 / RFU, BDP1 / Fold change vs veh, BDP1 / RFU, LRRCC1 / Fold change vs veh, LRRCC1 / RFU, ARID1A / Fold change vs veh, ARID1A / RFU, ZNF146 / Fold change vs veh, ZNF146 / RFU, ZNF330 / Fold change vs veh, ZNF330 / RFU, GPN3 / Fold change vs veh, GPN3 / RFU, C9orf123 / Fold change vs veh, C9orf123 / RFU, N4BP2L2 / Fold change vs veh, N4BP2L2 / RFU, ARFIP1 / Fold change vs veh, ARFIP1 / RFU, FAM179B / Fold change vs veh, FAM179B / RFU, BCL10 / Fold change vs veh, BCL10 / RFU, UHRF1BP1L / Fold change vs veh, UHRF1BP1L / RFU, BET1 / Fold change vs veh, BET1 / RFU, CNOT2 / Fold change vs veh, CNOT2 / RFU, ZNF268 / Fold change vs veh, ZNF268 / Fold change vs veh, ZNF507 / RFU, DGCR2 / Fold change vs veh, DGCR2 / RFU, WDSUB1 / Fold change vs veh, WDSUB1 / Fold change vs veh, HSP90B1 /// MIR3652 / RFU, ADSS / Fold change vs veh, ADSS / RFU, GK / Fold change vs veh, GK / RFU, ZNF148 / Fold change vs veh, ZNF148 / RFU, TAF9 / Fold change vs veh, TAF9 / RFU, SLC1A5 / Fold change vs veh, SLC1A5 / RFU, SLMO2 / Fold change vs veh, SLMO2 / RFU, ABCC4 / Fold change vs veh, ABCC4 / RFU, LOC101060439 /// RAP1B / Fold change vs veh, LOC101060439 /// RAP1B / RFU, RFX7 / Fold change vs veh, RFX7 / RFU, GTPBP10 / Fold change vs veh, GTPBP10 / RFU, CNEP1R1 / Fold change vs veh, CNEP1R1 / RFU, BIVM-ERCC5 /// ERCC5 / Fold change vs veh, BIVM-ERCC5 /// ERCC5 / RFU, ILF3 / Fold change vs veh, ILF3 / RFU 11762660_at / Fold change /veh 11762660_at / RFU VCAN (11757783_s_at) / Fold change /veh VCAN (11757783_s_at) / RFU DDX43 (11728927_at) / Fold change /veh DDX43 (11728927_at) / RFU KRT8 (11758188_x_at) / Fold change /veh KRT8 (11758188_x_at) / RFU NKD1 (11759106_at) / Fold change /veh NKD1 (11759106_at) / RFU SRD5A1 (11742802_a_at) / Fold change /veh SRD5A1 (11742802_a_at) / RFU TPSAB1 /// TPSB2 (11721975_s_at) / Fold change /veh TPSAB1 /// TPSB2 (11721975_s_at) / RFU GSTM3 (11746129_a_at) / Fold change /veh GSTM3 (11746129_a_at) / RFU IL23R (11737362_x_at) / Fold change /veh IL23R (11737362_x_at) / RFU TMEM51 (11727254_a_at) / Fold change /veh TMEM51 (11727254_a_at) / RFU PIWIL2 (11732686_x_at) / Fold change /veh PIWIL2 (11732686_x_at) / RFU ORM1 (11744905_x_at) / Fold change /veh ORM1 (11744905_x_at) / RFU CCDC152 (11743942_at) / Fold change /veh CCDC152 (11743942_at) / RFU ECM1 (11717891_a_at) / Fold change /veh ECM1 (11717891_a_at) / RFU IL23R (11748794_a_at) / Fold change /veh IL23R (11748794_a_at) / RFU TNFAIP8L3 (11732012_x_at) / Fold change /veh TNFAIP8L3 (11732012_x_at) / RFU MBOAT4 (11741988_at) / Fold change /veh MBOAT4 (11741988_at) / RFU 11764193_at / Fold change /veh 11764193_at / RFU TMEM53 (11763286_at) / Fold change /veh TMEM53 (11763286_at) / RFU MAGEB2 (11727129_at) / Fold change /veh MAGEB2 (11727129_at) / RFU TMEM200A (11744735_a_at) / Fold change /veh TMEM200A (11744735_a_at) / RFU CCDC152 (11751479_a_at) / Fold change /veh CCDC152 (11751479_a_at) / RFU FAM211A (11726209_a_at) / Fold change /veh FAM211A (11726209_a_at) / RFU RGS16 (11746705_a_at) / Fold change /veh RGS16 (11746705_a_at) / RFU VCAN (11755009_s_at) / Fold change /veh VCAN (11755009_s_at) / RFU RHOB (11743442_s_at) / Fold change /veh RHOB (11743442_s_at) / RFU RGS16 (11720943_a_at) / Fold change /veh RGS16 (11720943_a_at) / RFU RGS16 (11720944_at) / Fold change /veh RGS16 (11720944_at) / RFU, VPS4B / Fold change vs veh, VPS4B / RFU, CREB1 / Fold change vs veh, CREB1 / RFU, DNAJC13 / Fold change vs veh, DNAJC13 / RFU, GNAQ / Fold change vs veh, GNAQ / RFU, CDK5R1 / Fold change vs veh, CDK5R1 / RFU, ZRANB3 / Fold change vs veh, ZRANB3 / RFU, CUL4A / Fold change vs veh, CUL4A / RFU, CCNY / Fold change vs veh, CCNY / RFU, UFL1 / Fold change vs veh, UFL1 / RFU, COG3 / Fold change vs veh, COG3 / RFU, DIAPH2 / Fold change vs veh, DIAPH2 / RFU, SKA2 / Fold change vs veh, SKA2 / RFU, AFF3 / Fold change vs veh, AFF3 / RFU, LMF1 / Fold change vs veh, LMF1 / RFU, IPO11 / Fold change vs veh, IPO11 / RFU, DFFB / Fold change vs veh, DFFB / RFU, FOXP1 / Fold change vs veh, FOXP1 / RFU, CARD8 / Fold change vs veh, CARD8 / RFU, STRN3 / Fold change vs veh, STRN3 / RFU, ADK / Fold change vs veh, ADK / RFU, RASSF2 / Fold change vs veh, RASSF2 / RFU, WIPF1 / Fold change vs veh, WIPF1 / RFU, LARP1B / Fold change vs veh, LARP1B / RFU, RASA1 / Fold change vs veh, RASA1 / RFU, RB1 / Fold change vs veh, RB1 / RFU, PPFIA1 / Fold change vs veh, PPFIA1 / RFU, MAT2A / Fold change vs veh, MAT2A / RFU, CCT5 / Fold change vs veh, CCT5 / RFU, WDR92 / Fold change vs veh, WDR92 / RFU, CUX1 / Fold change vs veh, CUX1 / RFU, TTC7A / Fold change vs veh, TTC7A / RFU, TMEM135 / Fold change vs veh, TMEM135 / RFU, DEPTOR / Fold change vs veh, DEPTOR / RFU, CPM / Fold change vs veh, CPM / RFU, DNAJB6 / Fold change vs veh, DNAJB6 / RFU, CACNA2D3 / Fold change vs veh, CACNA2D3 / RFU, DTX4 / Fold change vs veh, DTX4 / RFU, TFCP2 / Fold change vs veh, TFCP2 / RFU, GMCL1 /// GMCL1P1 / Fold change vs veh, GMCL1 /// GMCL1P1 / RFU, AEBP2 / Fold change vs veh, AEBP2 / RFU, SNHG1 /// SNORD22 /// SNORD25 /// SNORD26 /// SNORD27 /// SNORD28 /// SNORD29 /// SNORD31 / Fold change vs veh, SNHG1 /// SNORD22 /// SNORD25 /// SNORD26 /// SNORD27 /// SNORD28 /// SNORD29 /// SNORD31 / Fold change (Aza/veh), C12orf56 (ProbeSet 11735607_a_at) / Fold change (ACY-1035/veh), C12orf56 (ProbeSet 11735607_a_at) / Fold change (Aza/veh), FGFR1OP (ProbeSet 11751329_s_at) / Fold change (ACY-1035/veh), FGFR1OP (ProbeSet 11751329_s_at) / Fold change (Aza/veh), VPS36 (ProbeSet 11739960_a_at) / Fold change (ACY-1035/veh), VPS36 (ProbeSet 11739960_a_at) / RFU SYPL1 (11715823_x_at) / Fold change /veh SYPL1 (11715823_x_at) / RFU IGFBP7 (11715501_s_at) / Fold change /veh IGFBP7 (11715501_s_at) / RFU REEP3 (11722064_at) / Fold change /veh REEP3 (11722064_at) / RFU IGLL1 (11728026_x_at) / Fold change /veh IGLL1 (11728026_x_at): dose or concentration left out as unconfirmed. The settings on record: ProbeSet 11747937_a_at; LIST D.

The values that follow come from article PMC5218480 (PLoS ONE, 2017).

Turning to `Nc1ncn([C@@H]2O[C@H](CO)[C@@H](O)[C@H]2O)c(=O)n1` [azacitidine], the “Fold change vs veh, DNAJB6” value amounted to 0.52.
